For this test, the target named is T1, recombinant IL4I1 (Homo sapiens, UniProt Q96RQ9).
T1 construct: purchased R&D Systems 5684-AO-020
T1 sequence (Q96RQ9 22-567): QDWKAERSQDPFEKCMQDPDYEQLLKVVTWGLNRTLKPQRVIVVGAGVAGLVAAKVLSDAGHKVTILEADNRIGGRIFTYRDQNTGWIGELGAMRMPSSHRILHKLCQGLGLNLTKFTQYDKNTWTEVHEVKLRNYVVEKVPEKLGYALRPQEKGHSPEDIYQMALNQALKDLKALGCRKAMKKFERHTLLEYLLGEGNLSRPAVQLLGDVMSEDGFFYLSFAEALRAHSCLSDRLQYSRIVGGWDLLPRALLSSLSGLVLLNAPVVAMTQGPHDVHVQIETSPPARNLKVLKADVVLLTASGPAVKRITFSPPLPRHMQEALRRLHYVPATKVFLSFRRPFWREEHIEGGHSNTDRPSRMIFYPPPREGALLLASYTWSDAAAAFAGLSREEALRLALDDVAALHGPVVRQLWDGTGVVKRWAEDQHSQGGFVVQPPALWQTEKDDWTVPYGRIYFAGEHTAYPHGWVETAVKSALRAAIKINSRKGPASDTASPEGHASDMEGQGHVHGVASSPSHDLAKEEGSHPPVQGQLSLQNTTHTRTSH
The experiment in a line: IL4I1 Enzymatic Assay (Amplex Red/HRP coupled H2O2 detection). It counts as biochemical. The settings on record: 240 min; four-hour pre-incubation with compound; 1 nM IL4I1, 1 mM each Phe/Tyr/Trp; ten-point titration; fluorescence readout; read-out: Potency EC50 (nM) (240 min). As to the method:
Interleukin 4 inducible protein 1 (IL4I1) is an L-amino oxidase that catalyzes the oxidation of aromatic residues (Phe, Trp and Tyr): L-amino acid+H2O+O2→2-oxo acid+NH3+H2O2. Equal molar of H2O2 and the corresponding alpha-ketoacid are produced when IL4I1 and substrate are added. In this assay, the hydrogen peroxide generated by IL4I1 is then detected through a coupled reaction with Amplex Red (10-acetyl-3,7-dihydroxyphenoxazine) and […] (HRP) to produce Resorufin product that could be detected in the form of fluorescence signals. The assessment of the inhibitory effect of small molecules (EC50) on IL4I1 is measured by the effectiveness of the compounds to inhibit the production of H2O2.
Using this assay, the potency (EC50) of each compound was determined from a ten-point (1:3 serial dilution) titration curve using the following outlined procedure. To each well of a black flat-bottom Greiner (Cat #781076) 384 well-plate, 25 nL of compound (0.1% DMSO in final assay volume of 25 μL) was dispensed, followed by the addition of 12.5 μL of 1x assay buffer (50 mM Hepes 7.0 and 0.005% Tween20 (Sigma, Cat #P8341; low peroxide grade)) containing 2 nM of recombinant IL4I1 (R&D Systems, Cat #5684-AO-020). Plates were placed in an ambient temperature humidified chamber for a four-hour pre-incubation with compound. Subsequently, each reaction was initiated by the addition of 12.5 μL 1x assay buffer containing 2 mM of each aromatic amino acids (Phe/Tyr/Trp), 0.1 mM Amplex Red and 2 U/mL of HRP. The final reaction in each well of 25 μL consists of 1 nM of IL411, 1 mM of each residues (Phe, Tyr and Trp), 0.05 mM Amplex Red and 1 U/mL of HRP. It should be noted that the concentrations of Amplex Red and HRP used here are in excess such that the conversion of H2O2 to Resorufin product occurs instantaneously and non-rate limiting. Reactions were allowed to proceed for 120 minutes followed by fluorescence readout on a Spectramax with the following set parameters: 544 nm excitation/590 nm emission, 570 nm cutoff (EnVision is an alternative reader). Dose-response curves were generated by plotting percent effect (% product conversion; Y-axis) vs. Log10 compound concentrations (X-axis). EC50 values were calculated using a non-linear regression, four-parameters sigmoidal dose-response model and are shown in Table 16.
Consider `COc1cc(Cn2c(=O)[nH]c3ccccc32)ccc1CNC(C)=O` [Example 7, N-({2-methoxy-4-[(2-oxo-2,3-dihydro-1H-benzimidazol-1-yl)methyl]phenyl}methyl)acetamide], for which the EC50 amounted to 8 nM.
Next, `O=c1[nH]c2ccccc2n1CCC1CCCO1` (centres unmarked) [Example 60, 1-[2-(oxolan-2-yl)ethyl]-1,3-dihydro-2H-benzimidazol-2-one]: 8660 nM.
Turning to `O=c1[nH]c2ccc(F)cc2n1Cc1ccc2c(c1)CCC2` [Example 70, 1-((2,3-dihydro-1H-inden-5-yl)methyl)-6-fluoro-1,3-dihydro-2H-benzo[d]imidazol-2-one], the EC50 stood at 14 nM.
Under `N#CC1(Cc2ncc(Cn3c(=O)[nH]c4ccccc43)cc2Cl)CCC1` [Example 79, 1-((3-chloro-5-((2-oxo-2,3-dihydro-1H-benzo[d]imidazol-1-yl)methyl)pyridin-2-yl)methyl)cyclobutane-1-carbonitrile] stands 113 nM; under `O=c1[nH]c2ccccc2n1Cc1ccc2c(c1)CCC2` [Example 55, 1-((2,3-dihydro-1H-inden-5-yl)methyl)-1,3-dihydro-2H-benzo[d]imidazol-2-one], 0.8 nM.
Under `O=C1CCCN1Cc1sc(Cn2c(=O)[nH]c3ccccc32)cc1Cl` [Example 36, 1-((4-chloro-5-((2-oxopyrrolidin-1-yl)methyl)thiophen-2-yl)methyl)-1,3-dihydro-2H-benzo[d]imidazol-2-one] stands 9 nM.
Under `O=C(NC1CC1)c1ccc(Cn2c(=O)[nH]c3ccccc32)s1` [Example 14] stands 2 nM; under `CS(=O)(=O)NCc1sc(Cn2c(=O)[nH]c3ccccc32)cc1Cl` [Example 39, N-((3-chloro-5-((2-oxo-2,3-dihydro-1H-benzo[d]imidazol-1-yl)methyl)thiophen-2-yl)methyl)methanesulfonamide], 5 nM; under `CC(c1ccccc1)n1c(=O)[nH]c2ccccc21` (centres unmarked) [Example 87, 1-(1-phenylethyl)-1,3-dihydro-2H-benzo[d]imidazol-2-one], 8900 nM.
With `O=c1[nH]c2ccccc2n1Cc1cccnc1` [Example 56, 1-(pyridin-3-ylmethyl)-1,3-dihydro-2H-benzo[d]imidazol-2-one], the EC50 came out at 2480 nM.
Under `O=c1[nH]c2ccccc2n1CCCOc1cccc2cccnc12` [Example 97, 1-(3-(quinolin-8-yloxy)propyl)-1,3-dihydro-2H-benzo[d]imidazol-2-one] stands 45 nM; under `CC(=O)NCc1ccc(Cn2c(=O)[nH]c3ccccc32)cc1C` [Example 49, N-(2-methyl-4-((2-oxo-2,3-dihydro-1H-benzo[d]imidazol-1-yl)methyl)benzyl)acetamide], 10 nM.
Next, `CC(=O)N(C)Cc1ccc(Cn2c(=O)[nH]c3ccccc32)cc1` [Example 73, N-methyl-N-(4-((2-oxo-2,3-dihydro-1H-benzo[d]imidazol-1-yl)methyl)benzyl)acetamide]: 24 nM.
As for `Cc1cc(C)cc(Cn2c(=O)[nH]c3ccccc32)c1` [Example 72, 1-[(3,5-dimethylphenyl)methyl]-1,3-dihydro-2H-benzimidazol-2-one], the EC50 turned out to be 6 nM.
Next, `C[C@H]1COC(=O)N1Cc1ccc(Cn2c(=O)[nH]c3ccccc32)cc1` [Example 83, (S)-4-methyl-3-(4-((2-oxo-2,3-dihydro-1H-benzo[d]imidazol-1-yl)methyl)benzyl) oxazolidin-2-one]: 13 nM; `CNC(=O)Cc1ccc(Cn2c(=O)[nH]c3ccccc32)cc1` [Example 107, N-methyl-2-(4-((2-oxo-2,3-dihydro-1H-benzo[d]imidazol-1-yl)methyl)phenyl)acetamide]: 5 nM.
In the case of `O=c1[nH]c2ccccc2n1Cc1ccc(Cn2nncc2CO)cc1` (single isomer, unassigned) [Example 81, 1-(4-((5-(hydroxymethyl)-1H-1,2,3-triazol-1-yl)methyl)benzyl)-1,3-dihydro-2H-benzo[d]imidazol-2-one], the EC50 is 10 nM.
`CN(C)C(=O)Cc1ccc(Cn2c(=O)[nH]c3ccccc32)nc1` [Example 37, N,N-dimethyl-2-(6-((2-oxo-2,3-dihydro-1H-benzo[d]imidazol-1-yl)methyl)pyridin-3-yl)acetamide]: the EC50 was 1600 nM.
Under `O=c1[nH]c2ccccc2n1CCCCc1cccc2cccnc12` [Example 114, 1-(4-(quinolin-8-yl)butyl)-1,3-dihydro-2H-benzo[d]imidazol-2-one] stands 107 nM; under `COC1(C(=O)NCc2ccc(Cn3c(=O)[nH]c4ccccc43)cc2)CC1` [Example 96, 1-methoxy-N-(4-((2-oxo-2,3-dihydro-1H-benzo[d]imidazol-1-yl)methyl)benzyl)cyclopropane-1-carboxamide], 21 nM; under `CC(=O)NC(C)(C)c1ccc(Cn2c(=O)[nH]c3ccccc32)cc1` [Example 51, N-(2-{4-[(2-oxo-2,3-dihydro-1H-benzimidazol-1-yl)methyl]phenyl}propan-2-yl)acetamide], 54 nM.
Next, `O=c1[nH]c2ccccc2n1Cc1ccc(Cc2nnco2)cc1` [Example 3, 1-(4-((1,3,4-oxadiazol-2-yl)methyl)benzyl)-1,3-dihydro-2H-benzo[d]imidazol-2-one]: 53 nM; `O=c1[nH]c2ccccc2n1Cc1ccc2c(c1)CCN2` [Example 52, 1-(indolin-5-ylmethyl)-1,3-dihydro-2H-benzo[d]imidazol-2-one]: 18 nM; `O=c1[nH]c2ccccc2n1Cc1ccc2c(c1)S(=O)(=O)CC2` [Example 28, 1-((1,1-dioxido-2,3-dihydrobenzo[b]thiophen-6-yl)methyl)-1,3-dihydro-2H-benzo[d]imidazol-2-one]: 33 nM.
Next, `CCCS(=O)(=O)NCc1ccc(Cn2c(=O)[nH]c3ccc(F)cc32)cc1` [Example 95, N-(4-((6-fluoro-2-oxo-2,3-dihydro-1H-benzo[d]imidazol-1-yl)methyl)benzyl)propane-1-sulfonamide]: 6 nM; `O=C1CCCN1Cc1ccc(Cn2c(=O)[nH]c3ccccc32)cc1Cl` [Example 18, 1-(3-chloro-4-((2-oxopyrrolidin-1-yl)methyl)benzyl)-1,3-dihydro-2H-benzo[d]imidazol-2-one]: 8 nM; `O=c1[nH]c2ccccc2n1CC1CCCOC1` (centres unmarked) [Example 59, 1-[(oxan-3-yl)methyl]-1,3-dihydro-2H-benzimidazol-2-one]: 2930 nM.
On to `CNC(=O)c1cccc(Cn2c(=O)[nH]c3ccccc32)c1` [Example 29, N-methyl-3-[(2-oxo-2,3-dihydro-1H-benzimidazol-1-yl)methyl]benzamide], for which the EC50 stood at 5 nM.
Under `O=c1[nH]c2c(N3CCCC3)cccc2n1Cc1ccccc1` [Example 93, 1-benzyl-4-(pyrrolidin-1-yl)-1,3-dihydro-2H-benzo[d]imidazol-2-one] stands 1340 nM.
Under `CC(=O)NCc1ccc(Cn2c(=O)[nH]c3ccc(F)cc32)cc1` [Example 94, N-(4-((6-fluoro-2-oxo-2,3-dihydro-1H-benzo[d]imidazol-1-yl)methyl)benzyl)acetamide] stands 9 nM; under `CNC(=O)c1ccc(Cn2c(=O)[nH]c3ccccc32)s1` [Example 47, N-methyl-5-[(2-oxo-2,3-dihydro-1H-benzimidazol-1-yl)methyl]thiophene-2-carboxamide], 3 nM.
Regarding `Cc1ccc(C2CC2Cn2c(=O)[nH]c3ccccc32)nc1` (single isomer, unassigned) [Example 111, 1-((2-(5-methylpyridin-2-yl)cyclopropyl)methyl)-1,3-dihydro-2H-benzo[d]imidazol-2-one], the EC50 was 4 nM.

For orientation: EC50 means the concentration giving half of the maximal effect.

These data come from patent US12454525B2, “IL4I1 inhibitors and methods of use” (Merck Sharp & Dohme LLC, priority 2020, dated 2025).
